# Reference: paper PMC9181543, “Lysosomal Exocytosis of Olivacine on the Way to Explain Drug Resistance in Cancer Cells” (International Journal of Molecular Sciences, 2022)
# Tests used:
# MCF-7 cells = assay: MTT assay (mitochondrial activity), MCF-7; type: cell-based; conditions: Homo sapiens, MCF7
# Protocol: (§1) The anticancer activity of tested compounds was assessed on five human cell lines selected from the panel of tumor cell lines recommended by the National Cancer Institute: A495 (lung carcinoma), CCRF/CEM (acute lymphoblastic leukemia), LoVo and LoVo/DX (two types of colorectal: non-resistant and resistant to doxorubicin), and MCF-7 (breast adenocarcinoma). In addition, the NHDF cell line (normal human dermal fibroblasts) was used to estimate cytotoxicity to noncancer cells. The A549, CCRF/CEM, LoVo, LoVo/DX, and MCF-7 cells were obtained from ECACC, and NHDF cells from LONZA, Belgium. The A549 and MCF-7 cells were grown in EMEM medium, CCRF/CEM cells in RPMI-1640, LoVo and LoVo/DX cells in DMEM/F-12, and NHDF cells in DMEM without phenol red. The cells were seeded in […] in the biological assay, as recommended by the National Cancer Institute. All culture media were supplemented with L-glutamine, penicillin, streptomycin, and 10% fetal bovine serum (FBS). Cells were incubated at 37 °C and 5% CO2. An assessment of the mitochondrial cell activity after applying tested compounds was carried out using the test MTT assay, recommended in the ISO 10993-5:2009 standard. As in the SRB assay, the cells were exposed to tested compounds after 24 h of initial incubation in 96-well plates. The MTT solution (1 mg/mL) was added to each well, and cells were incubated for 2 h. Finally, the supernatant was removed, and the formazan crystals were dissolved in isopropanol. After 30 min, absorbance at 570 nm in Victor2 microplate reader (PerkinElmer). Cell viability was determined as the IC50 ratio, i.e., the concentration of the compound in which the viability was reduced by half compared with the control.
# LoVo/DX cells = assay: MTT assay (mitochondrial activity), LoVo/DX; type: cell-based; conditions: Homo sapiens, LoVo/DX cells (doxorubicin-resistant)
# Protocol: as §1
# A549 cells [1] = assay: Proton pump blocking test (omeprazole) for lysosomal exocytosis; type: cell-based, human; conditions: for intracellular localisation: LysoTracker staining
# Protocol: To assess whether the exocytosis of olivacine and ellipticine from cancer cells is lysosomal, a proton pump blocking test was performed. Omeprazole was added into A549 cells at a concentration of 200 µM for 1 h. The cell culture was then washed twice with PBS, and the cells were treated with tested compounds. The cell culture was assessed using an Evos FL microscope. The lysosomes were stained using LysoTracker™ Deep Red kit (L12492; Invitrogen). Cultured cells were evaluated using an Evos FL microscope, taking photos every 15 min. After treatment with olivacine or olivacine and omeprazole, analysis of mean cell fluorescence was performed from five independent replicates. In addition, 14 pictures were taken from each replicate, and 100 cells were analyzed by photomicrography using the ImageJ platform.
# NHDF cells [2] = assay: SRB assay (total protein content), NHDF; type: cell-based; conditions: Homo sapiens, NHDF normal cells, 48 h incubation
# Protocol: (§2) The anticancer activity of tested compounds was assessed on five human cell lines selected from the panel of tumor cell lines recommended by the National Cancer Institute: A495 (lung carcinoma), CCRF/CEM (acute lymphoblastic leukemia), LoVo and LoVo/DX (two types of colorectal: non-resistant and resistant to doxorubicin), and MCF-7 (breast adenocarcinoma). In addition, the NHDF cell line (normal human dermal fibroblasts) was used to estimate cytotoxicity to noncancer cells. The A549, CCRF/CEM, LoVo, LoVo/DX, and MCF-7 cells were obtained from ECACC, and NHDF cells from LONZA, Belgium. The A549 and MCF-7 cells were grown in EMEM medium, CCRF/CEM cells in RPMI-1640, LoVo and LoVo/DX cells in DMEM/F-12, and NHDF cells in DMEM without phenol red. The cells were seeded in […] in the biological assay, as recommended by the National Cancer Institute. All culture media were supplemented with L-glutamine, penicillin, streptomycin, and 10% fetal bovine serum (FBS). Cells were incubated at 37 °C and 5% CO2. One of the most popular in vitro tests to evaluate the activity of compounds with potential antitumor activity is the SRB assay. The sulforhodamine B dye is used, which binds to the protein at the appropriate pH. The assay allows for assessing cell mass and, indirectly, their proliferation. The advantage of the assay is that it measures cellular protein content and not the activity of any enzymes. The SRB assay was carried out according to the National Cancer Institute procedure. Cells were incubated in a culture medium for 24 h in 96-well plates. After 24 h, the control plate for each cell line was fixed with TCA to evaluate cell culture before treatment with tested compounds. […] Cell cultures were then fixed by adding 50% TCA at 4 °C for 1 h. After removing the supernatant, the plates were washed with water and dried. […] Growth inhibition was calculated following the NCI guidelines and expressed as the GI50 ratio, i.e., the concentration of the compound in which the amount of protein was reduced by half compared with the control.
# A549 cells [3] = assay: SRB assay (total protein content), A549; type: cell-based; conditions: Homo sapiens, 48 h incubation
# Protocol: The anticancer activity of tested compounds was assessed on five human cell lines selected from the panel of tumor cell lines recommended by the National Cancer Institute: A495 (lung carcinoma), CCRF/CEM (acute lymphoblastic leukemia), LoVo and LoVo/DX (two types of colorectal: non-resistant and resistant to doxorubicin), and MCF-7 (breast adenocarcinoma). In addition, the NHDF cell line (normal human dermal fibroblasts) was used to estimate cytotoxicity to noncancer cells. The A549, CCRF/CEM, LoVo, LoVo/DX, and MCF-7 cells were obtained from ECACC, and NHDF cells from LONZA, Belgium. The A549 and MCF-7 cells were grown in EMEM medium, CCRF/CEM cells in RPMI-1640, LoVo and LoVo/DX cells in DMEM/F-12, and NHDF cells in DMEM without phenol red. The cells were seeded in […] in the biological assay, as recommended by the National Cancer Institute. All culture media were supplemented with L-glutamine, penicillin, streptomycin, and 10% fetal bovine serum (FBS). Cells were incubated at 37 °C and 5% CO2. One of the most popular in vitro tests to evaluate the activity of compounds with potential antitumor activity is the SRB assay. […] Growth inhibition was calculated following the NCI guidelines and expressed as the GI50 ratio, i.e., the concentration of the compound in which the amount of protein was reduced by half compared with the control.
# NHDF cells [4] = assay: MTT assay (mitochondrial activity), NHDF; type: cell-based; conditions: Homo sapiens, NHDF normal cells
# Protocol: as §1
# CCRF/CEM cells [5] = assay: Evaluation of the cell cycle (Tali Cell Cycle Kit); type: cell-based, human; conditions: for cell cycle effect: after exposure
# Protocol: It is expected that tested compounds affect cell division processes (intense in cancer). Therefore, the effect of compounds on the cell cycle was assessed by quantifying the content of cellular DNA in CCRF/CEM cells with Tali Cell Cycle Kit (Invitrogen). Cells were prepared by 24 h initial incubation in RPMI-1640 medium followed by the addition of tested compounds for a further 24 h. Subsequently, cells were harvested, centrifuged, washed, dissolved in PBS, and centrifuged again. After removing PBS, the cells were resuspended in Tali Cell Cycle Solution and incubated for 20 min in the dark at RT. Finally, the cells were transferred to the Tali Cellular Analysis Slides and analyzed using an image-based cytometer Arthur (NanoEnTek Inc.).
# LoVo cells [6] = assay: MTT assay (mitochondrial activity), LoVo; type: cell-based; conditions: Homo sapiens
# Protocol: as §1
# LoVo cells [7] = assay: SRB assay (total protein content), LoVo; type: cell-based; conditions: Homo sapiens, 48 h incubation
# Protocol: as §2
# CCRF/CEM cells [8] = assay: SRB assay (total protein content), CCRF/CEM; type: cell-based; conditions: Homo sapiens, 48 h incubation
# Protocol: as §2
# CCRF/CEM cells [9] = assay: MTT assay (mitochondrial activity), CCRF/CEM; type: cell-based; conditions: Homo sapiens
# Protocol: as §1
# [10] = 1 h pre-incubation with 200 µM omeprazole, compound 10 µM
duration of blockage of exocytosis after omeprazole (A549 cells [1]; [10]),Structure (SMILES),IC50 (MCF-7 cells),IC50 (LoVo/DX cells),time after which exocytosis was observed after omeprazole (A549 cells [1]; [10]),GI50 (NHDF cells [2]),GI50 (A549 cells [3]),IC50 (NHDF cells [4]),cell cycle effect (CCRF/CEM cells [5]),IC50 (LoVo cells [6]),GI50 (LoVo cells [7]),GI50 (CCRF/CEM cells [8]),IC50 (CCRF/CEM cells [9]),intracellular localisation (A549 cells [1]; with omeprazole),intracellular localisation (A549 cells [1]; without omeprazole),cell cycle inhibition at lower concentrations (CCRF/CEM cells [5]; 0.2 µM and 0.5 µM)
–,Cc1c2ccncc2c(C)c2c1[nH]c1ccccc12 [Ellipticine],4.67 ± 0.53 µM,15.1 ± 1.73 µM,> 3 h,4.44 ± 0.74 µM,0.72 ± 0.06 µM,8.98 ± 1.44 µM,blockade of the cell cycle in the G0/G1 phase,3.27 ± 0.83 µM,0.95 ± 0.25 µM,0.77 ± 0.17 µM,5.86 ± 0.51 µM,–,–,–
at least 3 h,"Cc1nccc2c(C)c3[nH]c4ccccc4c3cc12 [Olivacine, 1,5-dimethyl-6H-pyrido[4,3-b]carbazole]",18.5 ± 2.41 µM,26.3 ± 4.64 µM,–,14.8 ± 3.77 µM,0.93 ± 0.06 µM,15.3 ± 1.95 µM,blockade of the cell cycle in the G0/G1 phase,12.7 ± 1.08 µM,1.02 ± 0.21 µM,0.81 ± 0.14 µM,11 ± 3.3 µM,in the cytoplasm and not in the lysosomes,accumulation of olivacine in the lysosomes,No cell cycle inhibition
